What follows are compounds tested against T1, F508del (Homo sapiens, UniProt P13569, DEL508-508) (assay: Protocol 2: FRET membrane potential optical assay (VIPR), identification of correction compounds). Details: F508del CFTR modulator activity; compounds of Table 1.
T1 construct: expressed in transfected cells
Type: cell-based
Outline: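 Correction of the F508del trafficking defect is scored as forskolin (10 μM)/genistein (20 μM)-stimulated Cl^− efflux in NIH3T3 mouse fibroblasts after a 16 hr, 37° C. compound exposure. Depolarization was followed optically using voltage-sensing FRET dyes.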

T1 sequence (P13569 with tags, fused parts or gaps DEL508-508): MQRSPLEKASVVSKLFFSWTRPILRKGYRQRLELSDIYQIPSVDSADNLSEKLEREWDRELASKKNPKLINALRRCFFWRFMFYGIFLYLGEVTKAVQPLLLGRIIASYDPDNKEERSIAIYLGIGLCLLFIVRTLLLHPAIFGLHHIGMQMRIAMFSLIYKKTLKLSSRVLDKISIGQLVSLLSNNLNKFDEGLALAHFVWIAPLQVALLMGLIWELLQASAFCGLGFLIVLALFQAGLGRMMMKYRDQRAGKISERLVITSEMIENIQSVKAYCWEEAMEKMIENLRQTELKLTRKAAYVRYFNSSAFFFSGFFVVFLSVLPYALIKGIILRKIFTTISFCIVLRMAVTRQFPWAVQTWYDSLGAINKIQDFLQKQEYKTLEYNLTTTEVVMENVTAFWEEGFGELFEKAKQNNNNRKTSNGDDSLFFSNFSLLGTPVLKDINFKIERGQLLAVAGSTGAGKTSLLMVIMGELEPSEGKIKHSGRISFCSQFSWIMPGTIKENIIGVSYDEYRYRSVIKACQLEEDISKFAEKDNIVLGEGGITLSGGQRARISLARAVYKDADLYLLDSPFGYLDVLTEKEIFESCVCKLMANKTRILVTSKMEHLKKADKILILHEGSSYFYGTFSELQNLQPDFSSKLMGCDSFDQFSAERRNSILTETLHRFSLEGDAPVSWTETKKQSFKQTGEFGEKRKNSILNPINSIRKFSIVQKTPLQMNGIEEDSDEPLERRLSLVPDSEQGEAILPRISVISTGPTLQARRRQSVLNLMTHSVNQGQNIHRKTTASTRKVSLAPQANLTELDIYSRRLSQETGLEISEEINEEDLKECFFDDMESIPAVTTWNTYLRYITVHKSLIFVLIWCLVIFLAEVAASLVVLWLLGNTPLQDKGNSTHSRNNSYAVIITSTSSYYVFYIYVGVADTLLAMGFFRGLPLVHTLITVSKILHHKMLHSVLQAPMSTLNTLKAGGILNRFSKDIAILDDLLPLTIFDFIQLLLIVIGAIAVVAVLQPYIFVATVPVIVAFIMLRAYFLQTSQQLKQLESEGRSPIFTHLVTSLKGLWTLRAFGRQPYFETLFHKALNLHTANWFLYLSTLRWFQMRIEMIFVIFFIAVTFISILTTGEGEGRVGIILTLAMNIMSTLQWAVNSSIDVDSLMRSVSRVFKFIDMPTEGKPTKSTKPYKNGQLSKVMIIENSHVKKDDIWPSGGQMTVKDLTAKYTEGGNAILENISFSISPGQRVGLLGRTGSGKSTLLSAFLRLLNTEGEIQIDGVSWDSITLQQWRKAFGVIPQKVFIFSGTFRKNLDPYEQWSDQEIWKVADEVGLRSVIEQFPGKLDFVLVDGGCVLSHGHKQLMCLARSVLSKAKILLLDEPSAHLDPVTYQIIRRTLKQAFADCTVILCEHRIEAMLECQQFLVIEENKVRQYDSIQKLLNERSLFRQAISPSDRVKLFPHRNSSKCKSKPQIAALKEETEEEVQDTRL

| SMILES | EC30 |
| --- | --- |
| CC(C)(C)c1ccc(C(=O)NS(=O)(=O)c2cccc(N)n2)c(N2CCC(C3CC3)C2(C)C)n1 (single isomer, unassigned) [Compound 2577, N-[(6-amino-2-pyridyl)sulfonyl]-6-tert-butyl-2-(3-cyclopropyl-2,2-dimethyl-pyrrolidin-1-yl)pyridine-3-carboxamide] | +++ (“+++” means <3 uM) |

Same assay, conditions: F508del CFTR modulator activity; compounds of Table 1; read-out: EC30

| SMILES | EC30 [nM] |
| --- | --- |
| COc1ccc(-c2ccc(C(=O)NS(=O)(=O)c3cccnc3N)c(N3C[C@@H](C)CC3(C)C)n2)c(OC)n1 [Compound 2091, N-[(2-amino-3-pyridyl)sulfonyl]-6-(2,6-dimethoxy-3-pyridyl)-2-[(4S)-2,2,4-trimethylpyrrolidin-1-yl]pyridine-3-carboxamide] | < 3000 |
| C[C@@H]1CN(c2nc(C(C)(C)C)c(C3=CCN(C(=O)Cc4ccccc4)CC3)cc2C(=O)NS(=O)(=O)c2cccc(N)n2)C(C)(C)C1 [Compound 2417, N-[(6-amino-2-pyridyl)sulfonyl]-6-tert-butyl-5-[1-(2-phenylacetyl)-3,6-dihydro-2H-pyridin-4-yl]-2-[(4S)-2,2,4-trimethylpyrrolidin-1-yl]pyridine-3-carboxamide] | < 3000 |
| C[C@@H]1CN(c2nc(C(C)(C)C)c(C(O)C(O)C3CCCCC3)cc2C(=O)NS(=O)(=O)c2cccc(N)n2)C(C)(C)C1 (stereo partly shown) [Compound 2475] | < 3000 |
| CC1CN(c2ncccc2C(=O)NS(=O)(=O)c2cccc(N(C)C(C)C)n2)C(C)(C)C1 (single isomer, unassigned) [Compound 2724] | < 3000 |
| C[C@@H]1CN(c2nc(-n3ccc(OCC(C)(C)C)n3)ccc2C(=O)NS(=O)(=O)c2ccc[nH]c2=O)C(C)(C)C1 [Compound 2578, 6-[3-(2,2-dimethylpropoxy)pyrazol-1-yl]-N-[(2-oxo-1H-pyridin-3-yl)sulfonyl]-2-[(4S)-2,2,4-trimethylpyrrolidin-1-yl]pyridine-3-carboxamide] | < 3000 |
| CC1CN(c2ncccc2C(=O)NS(=O)(=O)c2cccc(OC3C=CCCC3)n2)C(C)(C)C1 (stereo not shown) [Compound 2147, N-[(6-cyclohex-2-en-1-yloxy-2-pyridyl)sulfonyl]-2-(2,2,4-trimethylpyrrolidin-1-yl)pyridine-3-carboxamide] | < 3000 |
| COc1ccc(-c2ccc(C(=O)NS(=O)(=O)N3CC[C@H](N)C3)c(N3C[C@@H](C)CC3(C)C)n2)cc1 [Compound 2327, N-[(3S)-3-aminopyrrolidin-1-yl]sulfonyl-6-(4-methoxyphenyl)-2-[(4S)-2,2,4-trimethylpyrrolidin-1-yl]pyridine-3-carboxamide] | 3000 to 10000 |
| CC1CN(c2ncccc2C(=O)NS(=O)(=O)c2cccc(Oc3ccccc3Cl)n2)C(C)(C)C1 (stereo not shown) [Compound 2298, N—[[6-(2-chlorophenoxy)-2-pyridyl]sulfonyl]-2-(2,2,4-trimethylpyrrolidin-1-yl)pyridine-3-carboxamide] | < 3000 |
| C[C@@H]1CN(c2nc(-c3ccc(C(F)(F)F)cc3)ccc2C(=O)NS(=O)(=O)c2cccnc2N)C(C)(C)C1 [Compound 2048, N-[(2-amino-3-pyridyl)sulfonyl]-6-[4-(trifluoromethyl)phenyl]-2-[(4S)-2,2,4-trimethylpyrrolidin-1-yl]pyridine-3-carboxamide] | < 3000 |
| C[C@@H]1CN(c2nc(C(C)(C)C)c(C3=CCN(C(=O)CC(C)(C)C)CC3)cc2C(=O)NS(=O)(=O)c2cccc(N)n2)C(C)(C)C1 [Compound 2344, N-[(6-amino-2-pyridyl)sulfonyl]-6-tert-butyl-5-[1-(3,3-dimethylbutanoyl)-3,6-dihydro-2H-pyridin-4-yl]-2-[(4S)-2,2,4-trimethylpyrrolidin-1-yl]pyridine-3-carboxamide] | < 3000 |
| CC1CN(c2ncccc2C(=O)NS(=O)(=O)c2cccc(OCc3ccc(Cl)cc3)n2)C(C)(C)C1 (stereo not shown) [Compound 2585, N—[[6-[(4-chlorophenyl)methoxy]-2-pyridyl]sulfonyl]-2-(2,2,4-trimethylpyrrolidin-1-yl)pyridine-3-carboxamide] | < 3000 |
| CC(C)Cn1cc(-c2ccc(C(=O)NS(=O)(=O)c3cccnc3N)c(N3C[C@@H](C)CC3(C)C)n2)cn1 [Compound 2231, N-[(2-amino-3-pyridyl)sulfonyl]-6-(1-isobutylpyrazol-4-yl)-2-[(4S)-2,2,4-trimethylpyrrolidin-1-yl]pyridine-3-carboxamide] | < 3000 |
| CC1CN(c2ncccc2C(=O)NS(=O)(=O)c2cccc(Nc3cccc4ccccc34)n2)C(C)(C)C1 (stereo not shown) [Compound 2136, N—[[6-(1-naphthylamino)-2-pyridyl]sulfonyl]-2-(2,2,4-trimethylpyrrolidin-1-yl)pyridine-3-carboxamide] | < 3000 |
| Cc1nc2cc(Oc3cccc(S(=O)(=O)NC(=O)c4cccnc4N4CC(C)CC4(C)C)n3)ccc2s1 (stereo not shown) [Compound 2729] | < 3000 |

Same assay, conditions: Table 3; compounds of Table 1 as modulators of CFTR activity; protocol not stated

| SMILES | EC30 |
| --- | --- |
| CC(C)COc1cc(F)cc(-c2ccc(C(=O)NS(=O)(=O)c3cccc(N)n3)c(N3CCC4CCCC43)n2)c1 (stereo not shown) [Compound 383, 2-(3,3a,4,5,6,6a-hexahydro-2H-cyclopenta[b]pyrrol-1-yl)-N-[(6-amino-2-pyridyl)sulfonyl]-6-(3-fluoro-5-isobutoxy-phenyl)pyridine-3-carboxamide] | +++ (“+++” means <3 uM) |
| CC(C)COc1cc(F)cc(-c2ccc(C(=O)NS(=O)(=O)c3ccn[nH]3)c(N3CCC(C(F)(F)F)CC3)n2)c1 [Compound 426, 6-(3-fluoro-5-isobutoxy-phenyl)-N-(1H-pyrazol-5-ylsulfonyl)-2-[14-(trifluoromethyl)-1-piperidyl]pyridine-3-carboxamide] | +++ (“+++” means <3 uM) |
| Cc1cc(C)c(C(C)n2nc(C(C)(C)C)cc2C(=O)NS(=O)(=O)c2ccccc2)c(C)c1 (stereo not shown) [Compound 201, N-(benzenesulfonyl)-5-tert-butyl-2-[1-(2,4,6-trimethylphenyl)ethyl]pyrazole-3-carboxamide] | +++ (“+++” means <3 uM) |
| COc1ccc(S(=O)(=O)NC(=O)C2c3ccccc3CN2Cc2c(C)cc(C)cc2C)cn1 (stereo not shown) [Compound 200, N-[(6-methoxy-3-pyridyl)sulfonyl]-2-[(2,4,6-trimethylphenyl)methyl]isoindoline-1-carboxamide] | ++ (“++” means between 3 uM and 10 uM) |
| Cc1cc(C)c(Oc2nc(-c3ccc(N(C)C)nc3)ccc2C(=O)NS(=O)(=O)c2cccc(N)n2)c(C)c1 [Compound 787, N-[(6-amino-2-pyridyl)sulfonyl]-6-[6-(dimethylamino)-3-pyridyl]-2-(2,4,6-trimethylphenoxy)pyridine-3-carboxamide] | +++ (“+++” means <3 uM) |
| Cc1cc(C)c(Oc2nc(-c3ccc(Cl)cc3)ccc2C(=O)NS(=O)(=O)c2cccc(N)n2)c(C)c1 [Compound 234, N-[(6-amino-2-pyridyl)sulfonyl]-6-(4-chlorophenyl)-2-(2,4,6-trimethylphenoxy)pyridine-3-carboxamide] | +++ (“+++” means <3 uM) |
| Cc1cc(C)c(-c2nc(C(C)(C)C)ccc2C(=O)NS(=O)(=O)c2cccc(N)c2)c(C)c1 [Compound 26, N-(3-aminophenyl)sulfonyl-6-tert-butyl-2-(2,4,6-trimethylphenyl)pyridine-3-carboxamide] | ++ (“++” means between 3 uM and 10 uM) |
| Cc1cc(C)c(Oc2nc(-n3ccc(C(F)(F)F)n3)ccc2C(=O)NS(=O)(=O)c2cccc(N)n2)c(C)c1 [Compound 676, N-[(6-amino-2-pyridyl)sulfonyl]-6-[3-(trifluoromethyl)pyrazol-1-yl]-2-(2,4,6-trimethylphenoxy)pyridine-3-carboxamide] | +++ (“+++” means <3 uM) |
| CC(C)COc1cc(F)cc(-c2ccc(C(=O)NS(=O)(=O)c3cccc(N)n3)c(OC3CCC(C)CC3)n2)c1 (stereo not shown) [Compound 438, N-[(6-amino-2-pyridyl)sulfonyl]-6-(3-fluoro-5-isobutoxy-phenyl)-2-(4-methylcyclohexoxy)pyridine-3-carboxamide] | +++ (“+++” means <3 uM) |
| Cc1cc(C)c(Oc2nc(-c3cccc4c3ccn4C)ccc2C(=O)NS(=O)(=O)c2cccc(N)n2)c(C)c1 [Compound 386, N-[(6-amino-2-pyridyl)sulfonyl]-6-(1-methylindol-4-yl)-2-(2,4,6-trimethylphenoxy)pyridine-3-carboxamide] | +++ (“+++” means <3 uM) |
| CC(C)COc1cc(F)cc(-c2ccc(C(=O)NS(=O)(=O)c3cccc(N)n3)c(N3CCCC(C)C3)n2)c1 (stereo not shown) [Compound 735, N-[(6-amino-2-pyridyl)sulfonyl]-6-(3-fluoro-5-isobutoxy-phenyl)-2-(3-methyl-1-piperidyl)pyridine-3-carboxamide] | +++ (“+++” means <3 uM) |
| Cc1cc(C)c(Oc2ccc(C(C)(C)C)nc2C(=O)NS(=O)(=O)c2ccccc2)c(C)c1 [Compound 350, N-(benzenesulfonyl)-6-tert-butyl-3-(2,4,6-trimethylphenoxy)pyridine-2-carboxamide] | +++ (“+++” means <3 uM) |
| Cc1ccc(-c2nc(C(C)(C)C)ccc2C(=O)NS(=O)(=O)c2cccnc2N)cc1 [Compound 636, N-[(2-amino-3-pyridyl)sulfonyl]-6-tert-butyl-2-(p-tolyl)pyridine-3-carboxamide] | ++ (“++” means between 3 uM and 10 uM) |
| C[C@H](c1ccccc1)n1nc(C(C)(C)C)cc1C(=O)NS(=O)(=O)c1cccc(N)c1 [Compound 540, N-(3-aminophenyl)sulfonyl-5-tert-butyl-2-[1(1R)-1-phenylethyl]pyrazole-3-carboxamide] | + (“+” means greater than 10 uM) |
| CC(C)c1ccc(-c2ccc(C(=O)NS(=O)(=O)c3ccc[nH]c3=O)c(N3[C@H](C)CC[C@@H]3C)n2)cc1 [Compound 589, 2-[(2S,5R)-2,5-dimethylpyrrolidin-1-yl]-6-(4-isopropylphenyl)-N-[(2-oxo-1H-pyridin-3-yl)sulfonyl]pyridine-3-carboxamide] | +++ (“+++” means <3 uM) |
| Cc1cccc(C)c1Cn1nc(C(C)(C)C)cc1C(=O)NS(=O)(=O)c1ccc(F)c(N)c1 [Compound 150, N-(3-amino-4-fluoro-phenyl)sulfonyl-5-tert-butyl-2-[(2,6-dimethylphenyl)methyl]pyrazole-3-carboxamide] | +++ (“+++” means <3 uM) |

Reference: patent US10758534B2 (Vertex Pharmaceuticals Incorporated, priority 2014, dated 2020)
